Assay results: patent US8153410B2, “Alternate morpheein forms of allosteric proteins as a target for the development of bioactive molecules” (Fox Chase Cancer Center, priority 2003, dated 2012)
Read-outs that look alike come from different tables or passages of the source.

Assays:
Assay type in all cases: biochemical
[1] = molecular target: T1, human PBGS (Homo sapiens, UniProt P13716); assay: human PBGS activity assay with morphlock-1
T1 sequence (P13716 1-330): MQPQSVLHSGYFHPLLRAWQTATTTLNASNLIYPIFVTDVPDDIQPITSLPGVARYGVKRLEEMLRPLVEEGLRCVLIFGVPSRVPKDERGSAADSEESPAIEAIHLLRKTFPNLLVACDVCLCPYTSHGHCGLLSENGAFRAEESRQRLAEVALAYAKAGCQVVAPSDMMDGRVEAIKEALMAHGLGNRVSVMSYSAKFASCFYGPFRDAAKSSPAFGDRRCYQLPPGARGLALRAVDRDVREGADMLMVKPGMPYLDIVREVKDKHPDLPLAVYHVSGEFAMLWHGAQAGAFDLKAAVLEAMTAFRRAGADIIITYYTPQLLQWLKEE
Procedure: (§1) FIG. 33 illustrates the species-specific effects of morphlock-1 on PBGS—FIG. 33(a) Dose-response curves showing morphlock-1 inhibition of pea PBGS at 1 μg/ml (∘) and human PBGS at 0.6 μg/ml (Δ) and 10 μg/ml (□). The proteins were incubated in the presence of 10× inhibitor for 30 minutes at 37° C. prior to assay. The concentrations on the X-axis represent the final concentration of morphlock-1 in the assay. FIG. 33(b). The IC50 for morphlock-1 is a function of pea PBGS concentration. IC50 values were determined as per part (a) using the noted concentrations of pea PBGS. (c) Native PAGE evaluation of the effect of morphlock-1 on the quaternary structure equilibria of PBGS (˜1 mg/ml) from D. melanogaster, P. aeruginosa, V. cholerae, and H. sapiens. Note that the charge/mass ratio is not the same for PBGS from different species.
(§2) The putative morphlock-1 binding site is phylogenetically variable (see below). As such, morphlock-1 would not be expected to inhibit human PBGS. The effect of morphlock-1 on the activity of human PBGS was also determined at the midpoint of the protein concentration-dependent specific activity. […] To further establish the species-selectivity of morphlock-1, the gel shift assay was also carried out for PBGS from P. aeruginosa, and V. cholerae.

[2] = molecular target: P. aeruginosa PBGS (Pseudomonas aeruginosa, UniProt Q59643); assay: native PAGE gel shift of P. aeruginosa PBGS; conditions: P. aeruginosa PBGS ~1 mg/ml
Sequence of P. aeruginosa PBGS (Q59643 whole entry): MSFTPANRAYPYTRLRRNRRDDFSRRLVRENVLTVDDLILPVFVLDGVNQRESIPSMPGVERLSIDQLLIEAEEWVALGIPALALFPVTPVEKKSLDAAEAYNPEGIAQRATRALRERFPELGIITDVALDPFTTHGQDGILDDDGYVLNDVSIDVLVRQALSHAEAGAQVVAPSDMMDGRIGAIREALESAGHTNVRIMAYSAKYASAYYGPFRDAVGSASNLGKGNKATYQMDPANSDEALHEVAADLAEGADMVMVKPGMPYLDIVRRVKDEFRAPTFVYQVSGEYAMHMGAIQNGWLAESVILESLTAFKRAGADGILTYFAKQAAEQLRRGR
Procedure: as §1, §2

[3] = molecular target: T2, pea PBGS (Pisum sativum, UniProt P30124); assay: pea PBGS activity assay (inhibition, protein concentration dependent specific activity); set-up: made in house
T2 sequence (P30124 69-398 limits assumed): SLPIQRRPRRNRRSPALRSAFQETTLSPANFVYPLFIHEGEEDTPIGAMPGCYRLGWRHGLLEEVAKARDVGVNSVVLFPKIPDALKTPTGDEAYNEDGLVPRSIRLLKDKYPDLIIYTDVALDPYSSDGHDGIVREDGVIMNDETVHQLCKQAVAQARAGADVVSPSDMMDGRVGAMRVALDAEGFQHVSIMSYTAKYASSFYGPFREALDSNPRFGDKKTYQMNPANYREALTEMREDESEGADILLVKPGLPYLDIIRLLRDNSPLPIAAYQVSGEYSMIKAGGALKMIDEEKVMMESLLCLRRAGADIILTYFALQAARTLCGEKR
Procedure: FIG. 32(a) The inhibitor morphlock-1 is illustrated as posed by Glide. The subunits A, B, and E are illustrated as ribbon diagram. Morphlock-1 is shown with carbon atoms and illustrated as ball and stick. FIG. 32(b) The chemical structure of morphlock-1. […] Pea PBGS was incubated with various concentrations of morphlock-1 (in a DMSO solution). Each concentration of morphlock-1 with a fixed amount of DMSO was incubated with protein for 30 minutes at 37° C. prior to resolution on 12.5% polyacrylamide native PhastGels. […] (d) The protein concentration dependence of pea PBGS specific activity is illustrated. […] The final concentration of morphlock-1 in the inhibited assay was 5 μM, and the concentration of PBGS in the inhibited and control assays ranged from 0.05-50 μg/mL (0.014-1.4 μM).
as §1, with “The” for “FIG. 33 illustrates the species-specific effects of morphlock-1 on PBGS—FIG. 33(a) Dose-response curves showing morphlock-1 inhibition of pea PBGS at 1 μg/ml (∘) and human PBGS at 0.6 μg/ml (Δ) and 10 μg/ml (□). The”, “The IC50 for morphlock-1 is a function of pea PBGS concentration.” left out
The dose response curve for morphlock-1 inhibition of pea PBGS (FIG. 37a) was initially carried out at 0.03 μM pea PBGS, where the hexamer is a significant component of the equilibrium mixture; the morphlock-1 concentration was varied from 0.1 μM to 0.1 mM.
The dose response curve for morphlock-1 inhibition of pea PBGS (FIG. 33(a)) was initially carried out at 0.03 μM pea PBGS, where the hexamer is a significant component of the equilibrium, in order to optimize the observed inhibition; the morphlock-1 concentration was varied from 0.1 μM to 0.1 mM.

O=C1Nc2ccc(S(=O)(=O)NCC(O)c3ccc([N+](=O)[O-])cc3)c3cccc1c23 (stereo not drawn) [morphlock-1, 2-oxo-1,2-dihydro-benzo(cd)indole-6-sulfonic acid[2-hydroxy-2-(4-nitro-phenyl)-ethyl]-amide]
effect on the protein concentration-dependent specific activity for human PBGS ([1]; 5 μM morphlock-1): has no affect
inhibition of human PBGS activity ([1]; midpoint of the protein concentration-dependent specific activity): does not inhibit human PBGS
perturbation of the quaternary structure equilibrium, gel shift assay [2]: did not cause any perturbation of the quaternary structure equilibrium
IC50 ([3]; 0.03 μM pea PBGS, morphlock-1 0.1 μM to 0.1 mM, 30 minutes at 37° C. prior to assay, read-out: apparent IC50 of morphlock-1 inhibition of pea PBGS): 1200 nM
IC50 ([3]; low protein concentration, activity assays, read-out: IC50 by kinetic analysis / activity assays (and native PAGE with more sensitive staining)): ~1000 nM
K(0.5) of the protein concentration dependent specific activity in the presence of morphlock-1 ([3]; morphlock-1 set at 5 μM, K(0.5) without morphlock-1 0.064 μM): 0.134 µM
